Reference: ChEMBL document CHEMBL1201862, “PubChem BioAssay data set” (2004)
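Assay format: 96-well plates, 48-hour exposure. GI50 is the concentration that inhibits growth by half.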 Activity calls are given as the source filed them. Rule as the data show it: active = GI50 up to about 1.1 µM and inactive = higher.

What was measured:
Test in all cases: NCI tumour cell line growth inhibition, 48 h
[1] = system: U-251
[2] = system: UACC-257
[3] = system: NCI/ADR-RES
[4] = system: PC-3
[5] = system: M14
[6] = system: SF-295
[7] = system: HT-29
[8] = system: LOX IMVI
[9] = system: MDA-MB-231
[10] = system: MOLT-4
[11] = system: SF-539
[12] = system: A498
[13] = system: NCI-H226
[14] = system: ACHN
[15] = system: HOP-92
[16] = system: SF-268
[17] = system: 786-0
[18] = system: EKVX
[19] = system: T47D
[20] = system: Hs-578T
[21] = system: HCT-15
[22] = system: NCI-H23
[23] = system: MDA-N
[24] = system: K562
[25] = system: OVCAR-4
[26] = system: OVCAR-3
[27] = system: UO-31
[28] = system: IGROV-1
[29] = system: SK-MEL-2
[30] = system: SW-620
[31] = system: SK-MEL-28
[32] = system: NCI-H522
[33] = system: SK-MEL-5
[34] = system: SR
[35] = system: TK-10
[36] = system: MDA-MB-435
[37] = system: HCC 2998
[38] = system: HL-60
[39] = system: MCF7
[40] = system: SK-OV-3
[41] = system: RXF 393
[42] = system: NCI-H460
[43] = system: CAKI-1
[44] = system: KM12
[45] = system: CCRF-CEM
[46] = system: RPMI-8226
[47] = system: OVCAR-5
[48] = system: HCT-116
[49] = system: OVCAR-8
[50] = system: DU-145
[51] = system: HOP-62
[52] = system: COLO 205
[53] = system: BT-549
[54] = system: UACC-62
[55] = system: Malme-3M
[56] = system: SNB-75
[57] = system: A549
[58] = system: SN12C

Measured: GI50

Fc1cc(C2=Nn3c(COc4ccccc4Cl)nnc3S/C2=C\c2ccc(Cl)cc2)c(Cl)cc1Cl
inactive: [1] 3.2 µM | [2] 21.8 µM | [3] 4.24 µM | [4] 12.3 µM | [5] 3.75 µM | [6] 4.28 µM | [7] 3.18 µM | [8] 3.92 µM | [9] 3.72 µM | [10] 5.97 µM | [11] 5.6 µM | [12] 14.2 µM | [13] 20.6 µM | [14] 4.66 µM | [15] 1.36 µM | [16] 2.83 µM | [17] 4.23 µM | [18] 10.1 µM | [19] 13.6 µM | [20] 11.8 µM | [22] 1.96 µM | [23] 2.23 µM | [24] 3.77 µM | [25] 9.84 µM | [26] 17.1 µM | [27] 6.4 µM | [28] 3.8 µM | [29] 13.3 µM | [30] 3.54 µM | [31] 3.54 µM | [32] 5.5 µM | [33] 3.96 µM | [34] 4.39 µM | [35] 11.6 µM | [36] 2.26 µM | [37] 3.6 µM | [38] 4.49 µM | [39] 5.14 µM | [40] 19.3 µM | [41] 9.89 µM | [42] 3.38 µM | [43] 8.02 µM | [44] 3.21 µM | [45] 9.04 µM | [46] 3.08 µM | [47] 3.96 µM | [48] 2.74 µM | [49] 6.03 µM | [50] 5.97 µM | [51] 15.8 µM
3.72 µM: [21]

CCOC(=O)C1NCCc2c1[nH]c1ccccc21 (stereo unspecified)
> 10 µM: [21]
inactive: [52] > 10 µM | [2] > 10 µM | [4] > 10 µM | [53] > 10 µM | [5] > 10 µM | [6] > 10 µM | [7] > 10 µM | [9] > 10 µM | [10] > 10 µM | [15] > 10 µM | [16] > 10 µM | [17] > 10 µM | [18] > 10 µM | [19] > 10 µM | [22] > 10 µM | [54] > 10 µM | [23] > 10 µM | [24] > 10 µM | [25] > 10 µM | [26] > 10 µM | [55] > 10 µM | [28] > 10 µM | [30] > 10 µM | [31] > 10 µM | [32] > 10 µM | [33] > 10 µM | [34] > 10 µM | [35] > 10 µM | [36] > 10 µM | [37] > 10 µM | [38] > 10 µM | [39] > 10 µM | [56] > 10 µM | [57] > 10 µM | [40] > 10 µM | [41] > 10 µM | [58] > 10 µM | [43] > 10 µM | [44] > 10 µM | [45] > 10 µM | [46] > 10 µM | [49] > 10 µM | [50] > 10 µM | [51] > 10 µM
